The values below come from ChEMBL document CHEMBL4428094, “Insights into the structure-activity relationship of the anticancer compound ZJ-101, a derivative of marine natural product superstolide A: A role played by the lactone moiety” (Bioorg Med Chem Lett, 2016).

What all share (type): functional, cell-based
In one assay the test system is HCT-116. Briefly: Antiproliferative activity against human HCT116 cells assessed as reduction in cell viability by Alamar blue assay. For orientation: Alamar Blue is a resazurin reagent that responds to reducing activity.
Another assay deals with SF-295. Briefly: Antiproliferative activity against human SF295 cells assessed as reduction in cell viability by Alamar blue assay.
In another assay the test system is HeLa. The assay can be described thus: Antiproliferative activity against human HeLa cells assessed as reduction in cell viability by Alamar blue assay.
For a further assay, the system named is MCF7. Briefly: Antiproliferative activity against human MCF7 cells assessed as reduction in cell viability by Alamar blue assay.
In another assay the test system is MDA-MB-231. The assay can be described thus: Antiproliferative activity against human MDA-MB-231 cells assessed as reduction in cell viability by Alamar blue assay.

Each structure is given as a SMILES string.

In general, IC50 refers to the concentration that gives 50% inhibition. In the case of `CC(=O)N[C@H](C)[C@@H](O)[C@@H](C)[C@@H]1OC(=O)/C=C/C=C(C)\C=C\[C@]2(C)CCC=C[C@@H]2/C=C(C)/C=C/[C@H]1C`, the IC50 with HCT-116 was found to be 94 nM; with SF-295, 63.5 nM; with HeLa, 75.4 nM.
Regarding `CC(=O)N[C@H](C)[C@@H](O)[C@@H](C)[C@@H]1NC(=O)/C=C/C=C(C)\C=C\[C@]2(C)CCC=C[C@@H]2/C=C(C)/C=C/[C@H]1C`, the IC50 was determined as 448 nM in the assay on MCF7; 746 nM in the assay with HCT-116; 584 nM in the assay with MDA-MB-231; 716 nM in the assay on SF-295; 597 nM in the assay with HeLa.
